This assay concerns the target T1, IKZF2 (Homo sapiens, UniProt Q96SW2+Q9UKS7).
T1 construct: CRISPR/Cas9—mediated insertion of the HiBiT peptide tag (Promega™) to the N-terminus of the IKZF2 gene locus; endogenous in cells; host or cells: MOLT4 cells, with CRISPR/Cas9 knock-in of HiBiT at the endogenous IKZF2 locus
Put plainly: HiBit-IKZF2 assay (HiBiT-Helios degradation in MOLT4 cells). Particulars: for Dmax: MOLT-4, extent of degradation from highest to lowest concentration, 10 μM to 0.00026 μM, read-out: Dmax; for DC50: concentration at which 50% of HiBiT-Helios degradation was achieved. Format: cell-based. The method, then:
The HiBiT protein tagging system was applied to MOLT4 cells via a CRISPR/Cas9—mediated insertion of the HiBiT peptide tag (Promega™) to the N-terminus of the IKZF2 gene locus (Neon™ Transfection System). The resulting HiBiT-Helios stable cell line was treated with the following compounds in triplicates following a 13-point concentration scheme ranging from 10 μM to 0.00026 μM. At the indicated timepoints, the Nano-Glo® HiBiT Lytic Detection System (Promega™) was utilized for detecting bioluminescence of the HiBiT tag in treated cells: abundance of the tag is proportionate to the level of luminescence. Following normalization to DMSO, dose-response curves were plotted (GraphPad Prism) to determine the concentration points at which 50% of HiBiT-Helios degradation was achieved by each compound. The extent of degradation (range of luminescence) from the highest to lowest concentration points was calculated to determine the Dmax.
For orientation: HiBiT is a short tag that completes a luciferase, so light tracks the accessible tagged protein.

T1 sequence (Q9UKS7 whole entry): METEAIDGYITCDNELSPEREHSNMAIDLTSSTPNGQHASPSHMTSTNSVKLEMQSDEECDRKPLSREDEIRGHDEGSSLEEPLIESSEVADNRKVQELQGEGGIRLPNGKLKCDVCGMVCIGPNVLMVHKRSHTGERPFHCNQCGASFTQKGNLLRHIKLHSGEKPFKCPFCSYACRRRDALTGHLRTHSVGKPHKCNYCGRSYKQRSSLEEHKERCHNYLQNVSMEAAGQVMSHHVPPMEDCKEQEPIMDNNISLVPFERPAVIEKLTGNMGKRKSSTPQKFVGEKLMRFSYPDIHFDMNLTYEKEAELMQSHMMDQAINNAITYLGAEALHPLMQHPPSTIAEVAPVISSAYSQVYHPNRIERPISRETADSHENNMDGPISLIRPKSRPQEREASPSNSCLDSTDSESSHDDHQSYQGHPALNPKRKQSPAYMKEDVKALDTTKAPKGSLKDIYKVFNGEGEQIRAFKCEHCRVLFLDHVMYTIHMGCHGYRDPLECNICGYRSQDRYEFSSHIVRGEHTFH
T1 sequence (Q96SW2 whole entry): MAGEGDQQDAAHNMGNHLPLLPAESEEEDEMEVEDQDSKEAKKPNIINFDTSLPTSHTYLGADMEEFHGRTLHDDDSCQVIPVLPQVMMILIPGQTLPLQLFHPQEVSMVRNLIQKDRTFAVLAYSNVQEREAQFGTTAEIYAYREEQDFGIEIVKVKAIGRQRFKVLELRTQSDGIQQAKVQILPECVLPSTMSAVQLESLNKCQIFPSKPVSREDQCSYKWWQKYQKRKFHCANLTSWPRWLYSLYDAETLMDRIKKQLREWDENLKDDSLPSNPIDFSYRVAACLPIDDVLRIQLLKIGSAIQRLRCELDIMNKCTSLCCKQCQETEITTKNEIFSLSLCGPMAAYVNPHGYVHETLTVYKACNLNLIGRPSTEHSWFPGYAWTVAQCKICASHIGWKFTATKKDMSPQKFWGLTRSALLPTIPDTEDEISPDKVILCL
T1 sequence (Q16531 whole entry partner): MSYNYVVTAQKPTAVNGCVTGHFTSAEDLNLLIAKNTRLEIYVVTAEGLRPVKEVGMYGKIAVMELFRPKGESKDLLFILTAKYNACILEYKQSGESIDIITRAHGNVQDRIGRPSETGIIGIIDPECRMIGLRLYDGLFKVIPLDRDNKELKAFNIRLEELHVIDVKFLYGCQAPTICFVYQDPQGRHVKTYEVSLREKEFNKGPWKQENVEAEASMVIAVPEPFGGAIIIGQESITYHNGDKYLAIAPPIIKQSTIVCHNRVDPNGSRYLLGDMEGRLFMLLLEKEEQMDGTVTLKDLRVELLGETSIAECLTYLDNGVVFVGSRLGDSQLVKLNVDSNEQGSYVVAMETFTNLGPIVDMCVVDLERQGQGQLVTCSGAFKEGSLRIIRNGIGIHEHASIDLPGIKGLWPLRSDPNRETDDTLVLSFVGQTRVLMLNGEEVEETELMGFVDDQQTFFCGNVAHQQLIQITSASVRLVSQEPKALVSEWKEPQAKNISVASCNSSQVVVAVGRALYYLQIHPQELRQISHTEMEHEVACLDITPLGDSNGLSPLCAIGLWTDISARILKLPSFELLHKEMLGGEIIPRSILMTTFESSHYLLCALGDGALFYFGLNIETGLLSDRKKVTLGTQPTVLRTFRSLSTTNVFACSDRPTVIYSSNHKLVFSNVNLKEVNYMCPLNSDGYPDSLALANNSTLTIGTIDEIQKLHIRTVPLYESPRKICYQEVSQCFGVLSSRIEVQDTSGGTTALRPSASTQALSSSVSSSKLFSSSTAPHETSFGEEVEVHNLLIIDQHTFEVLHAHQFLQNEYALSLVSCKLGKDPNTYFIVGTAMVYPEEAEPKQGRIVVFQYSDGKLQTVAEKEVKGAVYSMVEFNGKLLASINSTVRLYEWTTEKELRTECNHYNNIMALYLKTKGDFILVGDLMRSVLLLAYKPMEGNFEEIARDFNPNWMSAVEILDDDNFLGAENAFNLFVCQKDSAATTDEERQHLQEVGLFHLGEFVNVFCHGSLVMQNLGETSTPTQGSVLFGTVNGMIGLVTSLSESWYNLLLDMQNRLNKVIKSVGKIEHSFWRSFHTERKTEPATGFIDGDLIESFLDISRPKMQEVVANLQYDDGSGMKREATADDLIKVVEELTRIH

Broadly, the Dmax is the largest share of the target that was removed. The term DC50 denotes the midpoint of the concentration-degradation curve. Low values mean a more potent degrader, high ones a less potent degrader. In the case of `O=C1CCC(N2Cc3cc(C4CCN(Cc5cccc(N6CCC7(CC7)C6=O)c5)CC4)ccc3C2=O)C(=O)N1` (stereo not shown) [Compound 10], the Dmax was in the range of 30 to 50% and the DC50 fell in the range of 0.01 to 0.03 µM.
With `O=C1CCC(N2Cc3cc(C4(O)CCN(Cc5csc(-c6ccccc6)n5)CC4)ccc3C2=O)C(=O)N1` (stereo not shown) [Compound 33], the Dmax was greater than 70% and the DC50 was less than 0.01 µM.
On to `O=C1CCC(N2Cc3cc(C4CCN(Cc5cccc(Nc6ccccn6)c5)CC4)ccc3C2=O)C(=O)N1` (stereo not shown) [Compound 42, 3-(1-oxo-5-(1-(3-(pyridin-2-ylamino)benzyl)piperidin-4-yl)isoindolin-2-yl)piperidine-2,6-dione], for which the Dmax was in the range of 50 to 70% and the half-maximal degradation concentration (DC50) is less than 0.01 µM.
As to `O=C1CCC(N2Cc3cc(C4CCN(Cc5ccnc(Oc6ccccc6)c5)CC4)ccc3C2=O)C(=O)N1` (stereo not shown) [Compound 43, 3-(1-oxo-5-(1-((2-phenoxypyridin-4-yl)methyl)piperidin-4-yl)isoindolin-2-yl)piperidine-2,6-dione], the Dmax was 50 to 70% and the DC50 lay within 0.03 to 0.15 µM.
Regarding `N#CC1(COc2ccc(CN3CCC(c4ccc5c(c4)CN(C4CCC(=O)NC4=O)C5=O)CC3)cc2)CC1` (stereo not shown) [Compound 45, 1-((4-((4-(2-(2,6-dioxopiperidin-3-yl)-1-oxoisoindolin-5-yl)piperidin-1-yl)methyl)phenoxy)methyl)cyclopropane-1-carbonitrile], the Dmax fell in the range of 50 to 70% and the DC50 lay in the range of 0.01 to 0.03 µM.
On the same counts, the results for `O=C1CCC(N2Cc3cc(C4CCN(Cc5cccc(Nc6ccccc6)c5)CC4)ccc3C2=O)C(=O)N1` (stereo not shown) [Compound 46, 3-(1-oxo-5-(1-(3-(phenylamino)benzyl)piperidin-4-yl)isoindolin-2-yl)piperidine-2,6-dione] are 50 to 70% and less than 0.01 µM.
As for `O=C1CCC(N2Cc3cc(C4CCN(Cc5cccc(N6CCN(c7ccccc7)C6=O)c5)CC4)ccc3C2=O)C(=O)N1` (stereo not shown) [Compound 48], the Dmax was in the range of 50 to 70% and the 50% degradation concentration (DC50) lay within 0.03 to 0.15 µM.
On to `O=C1CCC(N2Cc3cc(C4CCN(Cc5cccc(NC(=O)c6ccccc6)c5)CC4)ccc3C2=O)C(=O)N1` (stereo not shown) [Compound 50], for which the greatest degradation seen (Dmax) was in the range of 50 to 70% and the half-maximal degradation concentration (DC50) lay in the range of 0.01 to 0.03 µM.
The corresponding values for `O=C1CCC(N2Cc3cc(C4CCN(Cc5cccc(N6Cc7ccccc7C6=O)c5)CC4)ccc3C2=O)C(=O)N1` (stereo not shown) [Compound 51] are 50 to 70% and less than 0.01 µM.
With `O=C1CCC(N2Cc3cc(C4CCN(Cc5ccc(S(=O)(=O)N6CC7C(C6)C7(F)F)cc5)CC4)ccc3C2=O)C(=O)N1` (stereo not shown) [Compound 58], the Dmax fell in the range of 30 to 50% and the DC50 fell in the range of 0.01 to 0.03 µM.
Regarding `O=C1CCC(N2Cc3cc(C4CCN(Cc5cccc(S(=O)(=O)N6CC7C(C6)C7(F)F)c5)CC4)ccc3C2=O)C(=O)N1` (stereo not shown) [Compound 59], the Dmax was 50 to 70% and the half-maximal degradation concentration (DC50) was less than 0.01 µM.
As to `O=C1CCC(N2Cc3cc(C4CCN(Cc5cccc(S(=O)(=O)N6CCC7(CC7)C6)c5)CC4)ccc3C2=O)C(=O)N1` (stereo not shown) [Compound 60], the maximal degradation (Dmax) fell in the range of 50 to 70% and the DC50 is 0.01 to 0.03 µM.
The corresponding values for `O=C1CCC(N2Cc3cc(C4CCN(Cc5cccc(S(=O)(=O)N6CC7(COC7)C6)c5)CC4)ccc3C2=O)C(=O)N1` (stereo not shown) [Compound 62] are 50 to 70% and 0.03 to 0.15 µM.
`O=C1CCC(N2Cc3cc(C4CCN(Cc5ccc6c(c5)S(=O)(=O)N(c5ccccc5)C6)CC4)ccc3C2=O)C(=O)N1` (stereo not shown) [Compound 80]: the Dmax is 30 to 50% and the half-maximal degradation concentration (DC50) lay in the range of 0.03 to 0.15 µM.
For the molecule `O=C1CCC(N2Cc3cc(C4CCN(Cc5cccc(S(=O)(=O)N6CCOc7ccccc76)c5)CC4)ccc3C2=O)C(=O)N1` (stereo not shown) [Compound 84], the Dmax was in the range of 50 to 70% and the DC50 was in the range of 0.03 to 0.15 µM.
Take `O=C1CCC(N2Cc3cc(C4CCN(Cc5cccc(C(=O)Nc6ccccc6)c5)CC4)ccc3C2=O)C(=O)N1` (stereo not shown) [Compound 86, 3-((4-(2-(2,6-dioxopiperidin-3-yl)-1-oxoisoindolin-5-yl)piperidin-1-yl)methyl)-N-phenylbenzamide]: the Dmax was 50 to 70% and the 50% degradation concentration (DC50) was less than 0.01 µM.
The corresponding values for `O=C1CCC(N2Cc3cc(C4CCN(Cc5ccc(S(=O)(=O)Nc6ccccc6)cc5)CC4)ccc3C2=O)C(=O)N1` (stereo not shown) [Compound 91] are 50 to 70% and less than 0.01 µM.
For the molecule `CN(c1ccccc1)S(=O)(=O)c1ccc(CN2CCC(c3ccc4c(c3)CN(C3CCC(=O)NC3=O)C4=O)CC2)cc1` (stereo not shown) [Compound 92], the Dmax fell in the range of 50 to 70% and the DC50 was less than 0.01 µM.
With `O=C1CCC(N2Cc3cc(C4CCN(Cc5cccc(N6C(=O)Cc7ccccc76)c5)CC4)ccc3C2=O)C(=O)N1` (stereo not shown) [Compound 95], the greatest degradation seen (Dmax) lay within 50 to 70% and the half-maximal degradation concentration (DC50) is less than 0.01 µM.
Turning to `O=C1CCC(N2Cc3cc(C4CCN(Cc5cccc(N6CCCCS6(=O)=O)c5)CC4)ccc3C2=O)C(=O)N1` (stereo not shown) [Compound 97], the maximal degradation (Dmax) fell in the range of 30 to 50% and the half-maximal degradation concentration (DC50) was in the range of 0.01 to 0.03 µM.
Consider `CN(c1ccccc1)S(=O)(=O)c1cccc(CN2CCC(c3ccc4c(c3)CN(C3CCC(=O)NC3=O)C4=O)CC2)c1` (stereo not shown) [Compound 98], for which the Dmax fell in the range of 50 to 70% and the DC50 is less than 0.01 µM.
With `CN(c1ccccn1)S(=O)(=O)c1ccc(CN2CCC(c3ccc4c(c3)CN(C3CCC(=O)NC3=O)C4=O)CC2)cc1` (stereo not shown) [Compound 99], the maximal degradation (Dmax) is 30 to 50% and the DC50 was 0.03 to 0.15 µM.
The corresponding values for `O=C1CCC(N2Cc3cc(C4CCN(Cc5nccc(Nc6ccccc6)c5F)CC4)ccc3C2=O)C(=O)N1` (stereo not shown) [Compound 100] are 50 to 70% and 0.01 to 0.03 µM.
Regarding `O=C1CCC(N2Cc3cc(C4CCN(Cc5cccc(Nc6ccccn6)n5)CC4)ccc3C2=O)C(=O)N1` (stereo not shown) [Compound 101], the Dmax lay in the range of 30 to 50% and the DC50 lay in the range of 0.01 to 0.03 µM.
As to `O=C1CCC(N2Cc3cc(C4CCN(Cc5nccc(Nc6ccccn6)n5)CC4)ccc3C2=O)C(=O)N1` (stereo not shown) [Compound 102], the Dmax lay in the range of 50 to 70% and the DC50 is 0.01 to 0.03 µM.
Turning to `O=C1CCC(N2Cc3cc(C4CCN(Cc5ccc6c(c5)C(=O)N(c5ccccc5)CC6)CC4)ccc3C2=O)C(=O)N1` (stereo not shown) [Compound 105, 3-(1-oxo-5-(1-((1-oxo-2-phenyl-1,2,3,4-tetrahydroisoquinolin-7-yl)methyl)piperidin-4-yl)isoindolin-2-yl)piperidine-2,6-dione], the greatest degradation seen (Dmax) is 50 to 70% and the DC50 is less than 0.01 µM.
Take `O=C1CCC(N2Cc3cc(C4CCN(Cc5ccccc5C(=O)N5CC6C(C5)C6(F)F)CC4)ccc3C2=O)C(=O)N1` (stereo not shown) [Compound 111]: the maximal degradation (Dmax) fell in the range of 30 to 50% and the DC50 was 0.03 to 0.15 µM.
On the same counts, the results for `O=C1CCC(N2Cc3cc(C4CCN(Cc5cccc6c5CN(c5ccccc5)C6=O)CC4)ccc3C2=O)C(=O)N1` (stereo not shown) [Compound 113] are 30 to 50% and less than 0.01 µM.
On the same counts, the results for `O=C1CCC(N2Cc3cc(C4CCN(Cc5ccnc(Nc6ccccn6)c5)CC4)ccc3C2=O)C(=O)N1` (stereo not shown) [Compound 115] are 50 to 70% and less than 0.01 µM.
With `O=C1CCC(N2Cc3cc(C4CCN(Cc5cc(Nc6ccccc6)ncn5)CC4)ccc3C2=O)C(=O)N1` (stereo not shown) [Compound 116], the maximal degradation (Dmax) fell in the range of 30 to 50% and the DC50 lay in the range of 0.03 to 0.15 µM.
As for `O=C1CCC(N2Cc3cc(C4CCN(Cc5ccccc5N5Cc6ccccc6C5=O)CC4)ccc3C2=O)C(=O)N1` (stereo not shown) [Compound 117], the Dmax was in the range of 30 to 50% and the 50% degradation concentration (DC50) was 0.03 to 0.15 µM.
Consider `O=C1CCC(N2Cc3cc(C4CCN(Cc5cccc(N6C(=O)Cc7cccnc76)c5)CC4)ccc3C2=O)C(=O)N1` (stereo not shown) [Compound 118], for which the Dmax fell in the range of 30 to 50% and the 50% degradation concentration (DC50) was in the range of 0.03 to 0.15 µM.

(Values after patent publication US20230002397A1, “SMALL MOLECULE DEGRADERS OF HELIOS AND METODS OF USE” (DANA-FARBER CANCER INSTITUTE, INC., priority 2019, published 2023).)
